Tests used:
[1] = biological target: T1, Electrophorus electricus AChE (Electrophorus electricus, UniProt O42275); assay type: biochemical
[2] = biological target: T1, Electrophorus electricus AChE; test: Steady-state enzyme kinetics of AChE in the presence of nantenine; assay type: biochemical
AChE [3] = biological target: AChE (Electrophorus electricus, UniProt O42275); test: TLC anticholinesterase bioautographic assay; assay type: biochemical; conditions: compared with galanthamine (1)
AChE [4] = conditions: rat synaptosomal membrane as enzyme source; cited from earlier work

T1 sequence (O42275 24-633): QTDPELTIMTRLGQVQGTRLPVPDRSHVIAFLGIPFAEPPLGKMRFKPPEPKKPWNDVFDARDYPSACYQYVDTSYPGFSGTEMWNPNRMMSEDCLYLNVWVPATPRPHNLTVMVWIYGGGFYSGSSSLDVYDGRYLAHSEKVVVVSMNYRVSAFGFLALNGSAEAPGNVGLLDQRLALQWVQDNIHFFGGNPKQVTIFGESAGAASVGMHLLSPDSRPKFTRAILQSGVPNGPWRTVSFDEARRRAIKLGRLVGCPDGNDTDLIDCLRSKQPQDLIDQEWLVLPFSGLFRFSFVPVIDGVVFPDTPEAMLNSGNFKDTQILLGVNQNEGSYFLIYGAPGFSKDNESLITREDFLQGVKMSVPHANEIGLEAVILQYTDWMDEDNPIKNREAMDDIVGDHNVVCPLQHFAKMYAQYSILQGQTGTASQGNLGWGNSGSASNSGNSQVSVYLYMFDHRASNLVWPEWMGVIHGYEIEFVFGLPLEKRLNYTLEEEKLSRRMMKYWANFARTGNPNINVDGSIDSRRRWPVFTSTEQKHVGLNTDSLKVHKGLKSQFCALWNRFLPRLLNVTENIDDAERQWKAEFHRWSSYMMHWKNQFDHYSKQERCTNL
Sequence of AChE (Electrophorus electricus, UniProt O42275) (O42275 24-633): as above

COc1cc2c(c(-c3ccc4c(c3)OCO4)c1OC)CN(C)CC2 [Compound 15a, 8-(benzo[d][1,3]dioxol-5-yl)-6,7-dimethoxy-2-methyl-1,2,3,4-tetrahydroisoquinoline]
fold less active than nantenine (AChE inhibition) [1]: approximately two-fold

COc1cc2c(c(-c3ccc4c(c3)OCO4)c1OC)C(C)N(C)CC2 (stereo not drawn) [Compound 15b, 8-(benzo[d][1,3]dioxol-5-yl)-6,7-dimethoxy-1,2-dimethyl-1,2,3,4-tetrahydroisoquinoline]
fold less active than nantenine (AChE inhibition) [1]: approximately two-fold

COc1cc2c3c(c1OC)-c1cc4c(cc1CC3N(C)CC2)OCO4 (stereo not drawn) [Nantenine (8), nantenine]
Ki [2]: 18.7 µM | mode of inhibition ([2]; Lineweaver-Burk plot): mixed inhibition | activity in TLC anticholinesterase bioautographic assay (AChE [3]): showed activity | activity in AChE assay (AChE [4]): inactive

Source: paper PMC4663080 (Journal of enzyme inhibition and medicinal chemistry, 2010)
